Data from patent US20230270763A1, “METHOD OF TREATING C[…] CANNABINOIDS AND DERIVATIVES” (PASCAL BIOSCIENCES INC., priority 2020, published 2023).
Where two headings read alike, the source gives them in different places.

Experiments:
[1] = test system: SARS-CoV-2 Toronto strain; assay: cytopathic effect screening assay, SARS-CoV-2 Toronto strain in Vero E6 cells; format: cell-based; settings: Severe acute respiratory syndrome coronavirus 2, Vero C1008; Vero E6 cells mixed with virus; CBD 20 nM to 10 μM; cell viability after 72 hours; FIG. 1; read-out: EC50, inhibition of cell death of virally-infected cells
[2] = test system: Vero E6 cells; settings: Vero E6 cultures not exposed to virus; 20 nM to 10 μM; 72 hours
[3] = test system: SARS-CoV-2; settings: reported by Nguyen et al., March 2021; cited from earlier work
[4] = test system: SARS-CoV-2 Everett strain; assay: protection of Calu-3 cells from SARS-CoV-2 Everett strain-induced cytotoxicity (CellTiter Glo 2.0); settings: read-out: IC50, protection of Calu-3 cells from SARS2-induced cytotoxicity
[5] = Severe acute respiratory syndrome coronavirus 2, Calu-3, 96 h

SMILES | EC50 [1] [nM] | cytotoxicity over the concentration range tested [2] | effect on SARS-CoV-2 replication [3] | IC50 [4, 5] [nM] | IC50 ([4]; Calu-3, 96 hours, MOI 0.5 to 2.0, three-fold dilutions from 10 μM) [nM]
C=C(C)[C@@H]1CCC(C)=C[C@H]1c1c(O)cc(CCCCC)cc1O [CBD, (−)-Cannabidiol] | 8500 | No cytotoxicity | inhibits SARS-CoV-2 replication | 120 | –
C=C(C)[C@@H]1CCC(C)=C[C@H]1c1c(O)cc(CCC)cc1O [cannabidivarin, (−)-Cannabidivarin] | – | – | – | 43 | –
CCCCCc1cc(O)c(C/C=C(\C)CCC=C(C)C)c(O)c1 [cannabigerol, Cannabigerol] | – | – | – | – | 120
